US8686022B2, “7-(piperazine-1-ymethyl)-1H-indole-2-carboxylic acid (phenyl)-amide derivatives and allied compounds as p38 MAP kinase inhibitors for the treatment of respiratory diseases” (Boehringer Ingelheim International GmbH, priority 2008, dated 2014)
Converted amounts (≈) assume the structure as drawn. “And” between values parts separate entries of the source, which are not always exact repeats. Equal values may be shown once.

Key:
[1] = Determining the solubility (saturated solution in McIlvaine buffer pH 7.4, UV spectroscopy); assay type: physicochemical; settings: pH 7.4, aqueous buffer, thermodynamic from solid, shaken 2 hours, 0.75 mg solid in 0.75 ml
Protocol: Determining the Solubility:
Saturated solutions are prepared in suitable well dishes by adding 0.75 ml of a McIlvaine buffer (pH 7.4) to the well in question containing 0.75 mg of solid of an active substance. The wells are shaken for 2 hours and then filtration is carried out through a suitable filter membrane (typically polytetrafluoroethylene with a pore size of 0.45 μm). Filter absorption is prevented by discarding the first few drops of filtrate. The amount of active substance dissolved is determined by UV spectroscopy.

[2] = biological target: p38 MAP-kinase (Homo sapiens, UniProt Q16539); assay: p38 MAP-kinase enzymatic assay (phosphorylation of GST-tagged ATF2, chemoluminescence); assay type: biochemical; settings: inhibitor concentration 1 μM, activated p38 MAP-kinase 1 nM, ATP 100 μM; for inhibition at 1 µM: read-out: p38 (% Inh @ 1 μM)
Protocol: In this, the amount of a substrate phosphorylated by the kinase is quantified. The test is carried out as follows:
The kinase reaction is carried out in the presence of HEPES (20 mM, pH 7), MgCl2 (10 mM), DTT (1 mM) and TWEEN20 (0.01%). First, dimethylsulphoxide or inhibitor (final concentration: 1 μM) dissolved in dimethylsulphoxide are placed in a reaction vessel. Then the activated p38 MAP-kinase (final concentration 1 nM) is added and the mixture is incubated for 4 h at ambient temperature. Then a mixture of substrate (GST-tagged ATF2) and ATP is added and everything is incubated together for a further hour (final concentration ATP: 100 μM; final concentration ATF2: 10 nM).
The concentration of phosphorylated ATF2 is quantified by chemoluminescence-induced light emission. For this, a glutathione donor bead (final concentration: 5 μg/ml) which binds to the gluthathione on the ATF2 and phospho-ATF2 antibodies are added to the reaction mixture (final concentration: 3 nM; this binds the phosphate group added by the kinase reaction) to which a Protein A Acceptor Bead (final concentration: 5 μg/ml) binds. These components are dissolved in a buffer which contains 20 mM HEPES pH 7.0, 200 mM NaCL, 80 mM EDTA as well as 0.3% BSA. This reaction mixture is incubated in the dark for 1 hour at ambient temperature. When these beads come physically close, visible light is emitted which is measured in a photometer at 520-620 nm.
To determine the inhibitory activity of the compounds according to the invention a calculation is made to determine the percentage by which the kinase activity is inhibited at a fixed inhibitor concentration of 1 μM. The maximum activity is determined by non-inhibited kinase. The minimum activity or nonspecific background activity is determined using a reaction mixture without kinase.
Table 2 summarises the degree of inhibition of the enzyme p38 MAP-kinase—as described hereinbefore—mediated by the compounds according to the invention detailed in the section “Preparation of the final compounds”.

[3] = biological target: cytochrome P450 2C9 (Homo sapiens, UniProt P11712); assay: Determining the cyp2C9 activity (O-demethylation of [O-methyl-14C]-naproxen); assay type: in vitro ADME; settings: human recombinant cytochrome P450 2C9; 37° C.; <0.4 μM when inhibition >50% at lowest concentration; read-out: CYP 2C9 IC50
Protocol: Determining the cyp2C9 Activity:
The assay is carried out in a robot system with 96-well plates. The final incubation volume is 200 μl of TRIS-Puffer (0.1 M), magnesium chloride (5 mM), recombinant protein (40 pmol/ml), ^14C-labelled naproxen (80 μM) and the test compound in one of 4 concentrations (50 μM, 10 μM, 2 μM and 0.4 μM) as a duplicate in each case. After a short preincubation period the reactions are started by the addition of the cofactor (NADPH, 1 mM) and ended after 15 min by the addition of 50 μl of a 10% aqueous trichloroacetic acid solution. One aliquot of the incubate is transferred onto a 96-well solid phase extraction plate and extracted. The ^14C-formaldehyde formed during the reaction is not retained on the solid phase extraction plate and is thus separated from the unmetabolised substrate by washing the solid phase extraction plate with water. One aliquot of the eluate is transferred into a well plate suitable for liquid scintillation. […] The IC50 is determined by the least squares method using the following formula: control activity=(100% control activity/(1+(I/IC50)S))−B where I=Inhibitor concentration S=Pitch B=Background activity
When the inhibition of the reaction is >50% even at the lowest concentration of the test compound, the IC50 is given as <0.4 μM.

Sequence of cytochrome P450 2C9 (P11712 whole entry): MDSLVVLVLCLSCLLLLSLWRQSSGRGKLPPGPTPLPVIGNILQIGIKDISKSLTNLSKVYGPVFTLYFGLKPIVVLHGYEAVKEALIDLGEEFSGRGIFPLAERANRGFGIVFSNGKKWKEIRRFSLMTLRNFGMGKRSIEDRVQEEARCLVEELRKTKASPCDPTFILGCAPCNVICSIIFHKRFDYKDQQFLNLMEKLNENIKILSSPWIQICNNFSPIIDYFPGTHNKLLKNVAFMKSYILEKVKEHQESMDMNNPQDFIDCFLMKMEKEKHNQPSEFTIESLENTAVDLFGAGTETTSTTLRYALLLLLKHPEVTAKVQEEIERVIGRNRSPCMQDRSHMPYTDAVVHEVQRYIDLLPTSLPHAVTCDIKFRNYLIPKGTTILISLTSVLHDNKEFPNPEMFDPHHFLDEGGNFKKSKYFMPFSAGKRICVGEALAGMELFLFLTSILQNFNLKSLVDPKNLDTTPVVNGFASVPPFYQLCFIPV
Sequence of p38 MAP-kinase (Q16539 whole entry): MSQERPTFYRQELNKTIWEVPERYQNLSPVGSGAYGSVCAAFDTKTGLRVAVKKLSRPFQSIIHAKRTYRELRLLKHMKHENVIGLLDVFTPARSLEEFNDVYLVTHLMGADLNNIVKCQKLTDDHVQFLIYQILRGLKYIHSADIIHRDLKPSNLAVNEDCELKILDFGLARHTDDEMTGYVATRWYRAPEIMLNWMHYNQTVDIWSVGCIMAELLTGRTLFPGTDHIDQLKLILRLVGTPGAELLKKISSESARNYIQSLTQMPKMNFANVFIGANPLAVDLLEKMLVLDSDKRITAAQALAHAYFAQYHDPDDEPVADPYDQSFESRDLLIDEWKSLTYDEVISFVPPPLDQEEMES

SMILES | solubility at 2 h [1] | inhibition at 1 µM [2] | IC50 [3] | p38 (% Inh @ 1 μM) [2]
COc1c(NC(=O)c2cc3cccc(CN4CCN(C(=O)[C@@H]5CCCN5C)CC4)c3n2C)cc(C(C)(C)C)cc1NS(C)(=O)=O [1(1), (S)-1-methyl-7-[4-(1-methyl-pyrrolidine-2-carbonyl)-piperazin-1-ylmethyl]-1H-indole-2-carboxylic acid(5-tert-butyl-3-methanesulphonylamino-2-methoxy-phenyl)-amide] | 340 µg/mL (≈ 532 µM) | 99.6% | 2130 nM | –
COc1c(NC(=O)c2cc3cccc(CN4CCN(C(=O)C5CN(C)C5)CC4)c3n2C)cc(C(C)(C)C)cc1NS(C)(=O)=O [1(2), 1-methyl-7-[4-(1-methyl-azetidine-3-carbonyl)-piperazin-1-ylmethyl]-1H-indole-2-carboxylic acid(5-tert-butyl-3-methanesulphonylamino-2-methoxy-phenyl)-amide] | 59 µg/mL (≈ 94.4 µM) | 98.5% | 1340 nM | –
COc1c(NC(=O)c2cc3cccc(CN4CCN(C(=O)[C@H]5CCCN5C)CC4)c3n2C)cc(C(C)(C)C)cc1NS(C)(=O)=O [1(3), (R)-1-methyl-7-[4-(1-methyl-pyrrolidine-2-carbonyl)-piperazin-1-ylmethyl]-1H-indole-2-carboxylic acid(5-tert-butyl-3-methanesulphonylamino-2-methoxy-phenyl)-amide] | 160 µg/mL (≈ 250 µM) | 99.1% | 1040 nM | –
COc1c(NC(=O)c2cc3cccc(CN4CCN(C(=O)C5CCN5C)CC4)c3n2C)cc(C(C)(C)C)cc1NS(C)(=O)=O (stereo not drawn) [1(5), 1-methyl-7-[4-(1-methyl-azetidine-2-carbonyl)-piperazin-1-ylmethyl]-1H-indole-2-carboxylic acid(5-tert-butyl-3-methanesulphonylamino-2-methoxy-phenyl)-amide] | 670 µg/mL (≈ 1070 µM) | 99% | 1630 nM | –
COc1c(NC(=O)c2cc3cccc(CC4CCN(C(=O)[C@@H]5CCCN5C)CC4)c3n2C)cc(C(C)(C)C)cc1NS(C)(=O)=O [1(7), (S)-1-methyl-7-[1-(1-methyl-pyrrolidine-2-carbonyl)-piperidin-4-ylmethyl]-1H-indole-2-carboxylic acid(5-tert-butyl-3-methanesulphonylamino-2-methoxy-phenyl)-amide] | 170 µg/mL (≈ 267 µM) | 98.9% | 780 nM | –
COc1c(NC(=O)c2cc3cccc(CN4CCN(C(=O)[C@H]5C[C@@H](OC)CN5C)CC4)c3n2C)cc(C(C)(C)C)cc1NS(C)(=O)=O [1(9), 7-[4-((2R,4R)-4-methoxy-1-methyl-pyrrolidine-2-carbonyl)-piperazin-1-ylmethyl]-1-methyl-1H-indole-2-carboxylic acid(5-tert-butyl-3-methanesulphonylamino-2-methoxy-phenyl)-amide] | 440 µg/mL (≈ 658 µM) | 98.9% | 1120 nM | –
COc1c(NC(=O)c2cc3cccc(CN4CCN(C(=O)[C@H]5C[C@H](O)CN5C)CC4)c3n2C)cc(C(C)(C)C)cc1NS(C)(=O)=O [1(11), 7-[4-((2R,4S)-4-hydroxy-1-methyl-pyrrolidine-2-carbonyl)-piperazin-1-ylmethyl]-1-methyl-1H-indole-2-carboxylic acid(5-tert-butyl-3-methanesulphonylamino-2-methoxy-phenyl)-amide] | 45 µg/mL (≈ 68.7 µM) | 99.2% | 410 nM | –
COc1c(NC(=O)c2cc3cccc(CN4CCN(C(=O)C(C)N5CCCC5)CC4)c3n2C)cc(C(C)(C)C)cc1NS(C)(=O)=O (stereo not drawn) [1(13), 1-methyl-7-[4-(2-pyrrolidin-1-yl-propionyl)-piperazin-1-ylmethyl]-1H-indole-2-carboxylic acid-(5-tert-butyl-3-methanesulphonylamino-2-methoxy-phenyl)-amide] | 40 µg/mL (≈ 61.3 µM) | 98.7% | 560 nM | –
COc1c(NC(=O)c2cc3cccc(CN4CCN(C(=O)CN5CCN(C(C)C)CC5)CC4)c3n2C)cc(C(C)(C)C)cc1NS(C)(=O)=O [1(14), 7-{4-[2-(4-isopropyl-piperazin-1-yl)-acetyl]-piperazin-1-ylmethyl}-1-methyl-1H-indole-2-carboxylic acid-(5-tert-butyl-3-methanesulphonylamino-2-methoxy-phenyl)-amide] | 120 µg/mL (≈ 172 µM) | 99.1% | 630 nM | –

Second part, the molecule after the results:

solubility at 2 h [1] | inhibition at 1 µM [2] | IC50 [3] | p38 (% Inh @ 1 μM) [2] | SMILES
100 µg/mL (≈ 160 µM) | 99.2% | 890 nM | – | COc1c(NC(=O)c2cc3cccc(CN4CCN(C(=O)[C@@H]5CCCN5)CC4)c3n2C)cc(C(C)(C)C)cc1NS(C)(=O)=O [1(4), (S)-1-methyl-7-[4-(pyrrolidine-2-carbonyl)-piperazin-1-ylmethyl]-1H-indole-2-carboxylic acid(5-tert-butyl-3-methanesulphonylamino-2-methoxy-phenyl)-amide]
560 µg/mL (≈ 878 µM) | 99.3% | 1430 nM | – | COc1c(NC(=O)c2cc3cccc(CC4CCN(C(=O)[C@H]5CCCN5C)CC4)c3n2C)cc(C(C)(C)C)cc1NS(C)(=O)=O [1(6), (R)-1-methyl-7-[1-(1-methyl-pyrrolidine-2-carbonyl)-piperidin-4-ylmethyl]-1H-indole-2-carboxylic acid(5-tert-butyl-3-methanesulphonylamino-2-methoxy-phenyl)-amide]
84 µg/mL (≈ 128 µM) | 98.9% | 1020 nM | – | COc1c(NC(=O)c2cc3cccc(CN4CCN(C(=O)[C@@H]5C[C@@H](O)CN5C)CC4)c3n2C)cc(C(C)(C)C)cc1NS(C)(=O)=O [1(8), 7-[4-((2S,4R)-4-hydroxy-1-methyl-pyrrolidine-2-carbonyl)-piperazin-1-ylmethyl]-1-methyl-1H-indole-2-carboxylic acid(5-tert-butyl-3-methanesulphonylamino-2-methoxy-phenyl)-amide]
43 µg/mL (≈ 65.7 µM) | 99.6% | 410 nM | – | COc1c(NC(=O)c2cc3cccc(CN4CCN(C(=O)[C@H]5C[C@@H](O)CN5C)CC4)c3n2C)cc(C(C)(C)C)cc1NS(C)(=O)=O [1(10), 7-[4-((2R,4R)-4-hydroxy-1-methyl-pyrrolidine-2-carbonyl)-piperazin-1-ylmethyl]-1-methyl-1H-indole-2-carboxylic acid(5-tert-butyl-3-methanesulphonylamino-2-methoxy-phenyl)-amide]
140 µg/mL (≈ 214 µM) | 98.9% | 1550 nM | – | COc1c(NC(=O)c2cc3cccc(CN4CCN(C(=O)[C@@H]5C[C@H](O)CN5C)CC4)c3n2C)cc(C(C)(C)C)cc1NS(C)(=O)=O [1(12), 7-[4-((2S,4S)-4-hydroxy-1-methyl-pyrrolidine-2-carbonyl)-piperazin-1-ylmethyl]-1-methyl-1H-indole-2-carboxylic acid(5-tert-butyl-3-methanesulphonylamino-2-methoxy-phenyl)-amide]
– | 98.6% | 780 nM and 870 nM and 560 nM | 99.0% and 98.7% | COc1c(NC(=O)c2cc3cccc(CN4CCN(C(=O)[C@@H]5CCCN5C)CC4)c3n2C)cc(C(C)(C)C)cc1[S+](C)[O-] (stereo partly drawn) [11(3), 1-methyl-7-[4-((2S)-1-methyl-pyrrolidine-2-carbonyl)-piperazin-1-ylmethyl]-1H-indole-2-carboxylic acid-(5-tert-butyl-3-methanesulphinyl-2-methoxy-phenyl)-amide]
